# From ChEMBL document CHEMBL5653631, “A Potent and Selective ULK1 Inhibitor Suppresses Autophagy and Sensitizes Cancer Cells to Nutrient Stress” (iScience, 2018)
# How the values were obtained:
# [1] = target: cAMP-dependent protein kinase catalytic subunit alpha (Homo sapiens) (UniProt P17612); assay: Inhibition of human recombinant PKACalpha at 40 nM related to control ULK1
# [2] = target: High affinity nerve growth factor receptor (Homo sapiens) (UniProt P04629); assay: Inhibition of human recombinant TRKA at 40 nM in presence of ATP by radiometric assay relative to control
# [3] = target: TRAF2 and NCK-interacting protein kinase (Homo sapiens) (UniProt Q9UKE5); assay: Inhibition of human recombinant TNIK at 15 nM in presence of ATP by radiometric assay relative to control
# [4] = target: T1, Serine/threonine-protein kinase 17B (Homo sapiens) (UniProt O94768); assay: Inhibition of human recombinant DRAK2 at 15 nM in presence of ATP by radiometric assay relative to control
# T1 sequence (whole entry): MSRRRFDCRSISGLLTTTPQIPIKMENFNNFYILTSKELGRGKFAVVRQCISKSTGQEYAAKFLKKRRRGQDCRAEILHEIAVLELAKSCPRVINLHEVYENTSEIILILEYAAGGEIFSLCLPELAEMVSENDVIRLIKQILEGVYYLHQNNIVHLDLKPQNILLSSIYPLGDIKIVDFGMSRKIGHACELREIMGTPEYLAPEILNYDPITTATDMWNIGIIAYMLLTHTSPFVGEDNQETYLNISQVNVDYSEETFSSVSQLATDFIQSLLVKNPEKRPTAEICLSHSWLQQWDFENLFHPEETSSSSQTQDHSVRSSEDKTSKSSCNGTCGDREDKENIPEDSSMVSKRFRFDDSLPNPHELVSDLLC
# [5] = target: T2, Rhodopsin kinase GRK1 (Homo sapiens) (UniProt Q15835); assay: Inhibition of human recombinant RHOK at 15 nM related to control ULK1
# T2 sequence (whole entry): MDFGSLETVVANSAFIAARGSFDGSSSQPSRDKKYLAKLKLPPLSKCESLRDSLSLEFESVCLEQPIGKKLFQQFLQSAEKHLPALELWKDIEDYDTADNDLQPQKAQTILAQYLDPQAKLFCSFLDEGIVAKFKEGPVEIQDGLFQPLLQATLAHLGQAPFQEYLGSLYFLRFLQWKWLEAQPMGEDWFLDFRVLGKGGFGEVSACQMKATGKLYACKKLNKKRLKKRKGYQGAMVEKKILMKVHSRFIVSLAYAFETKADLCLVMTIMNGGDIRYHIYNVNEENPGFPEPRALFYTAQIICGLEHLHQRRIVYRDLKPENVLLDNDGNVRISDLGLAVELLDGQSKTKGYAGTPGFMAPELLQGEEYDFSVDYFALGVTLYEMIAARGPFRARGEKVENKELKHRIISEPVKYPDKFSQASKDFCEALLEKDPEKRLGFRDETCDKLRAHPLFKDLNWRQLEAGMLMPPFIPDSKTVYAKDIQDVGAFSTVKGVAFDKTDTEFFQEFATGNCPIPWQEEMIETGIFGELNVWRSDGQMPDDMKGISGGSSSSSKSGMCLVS
# [6] = target: Serine/threonine-protein kinase PAK 3 (Homo sapiens) (UniProt O75914); assay: Inhibition of human recombinant PAK3 at 15 nM related to control ULK1
# [7] = target: Homeodomain-interacting protein kinase 2 (Homo sapiens) (UniProt Q9H2X6); assay: Inhibition of human recombinant HIPK2 at 15 nM related to control ULK1
# [8] = target: Insulin-like growth factor 1 receptor (Homo sapiens) (UniProt P08069); assay: Inhibition of human recombinant IGF1R at 15 nM related to control ULK1
# [9] = target: Activin receptor type-2A (Homo sapiens) (UniProt P27037); assay: Inhibition of human recombinant ACTR2 at 500 nM in presence of ATP by radiometric assay relative to control
# [10] = target: Serine/threonine-protein kinase 32B (Homo sapiens) (UniProt Q9NY57); assay: Inhibition of human recombinant YANK2 at 500 nM related to control ULK1
# [11] = target: Tyrosine-protein kinase Fer (Homo sapiens) (UniProt P16591); assay: Inhibition of human recombinant FER at 500 nM in presence of ATP by radiometric assay relative to control
# [12] = target: T3, cAMP-dependent protein kinase catalytic subunit PRKX (Homo sapiens) (UniProt P51817); assay: Inhibition of human recombinant PRKX at 500 nM related to control ULK1
# T3 sequence (whole entry): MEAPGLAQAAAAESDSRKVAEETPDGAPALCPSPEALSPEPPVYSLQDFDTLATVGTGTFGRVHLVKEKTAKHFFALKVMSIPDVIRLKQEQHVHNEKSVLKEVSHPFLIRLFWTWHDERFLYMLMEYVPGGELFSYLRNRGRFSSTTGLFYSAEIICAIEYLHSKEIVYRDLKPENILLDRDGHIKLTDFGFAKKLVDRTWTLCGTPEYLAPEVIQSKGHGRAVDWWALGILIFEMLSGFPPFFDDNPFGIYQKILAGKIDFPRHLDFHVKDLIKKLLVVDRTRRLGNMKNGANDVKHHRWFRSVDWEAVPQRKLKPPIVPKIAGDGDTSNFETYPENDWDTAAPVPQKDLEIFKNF
# [13] = target: T4, Mitogen-activated protein kinase 13 (Homo sapiens) (UniProt O15264); assay: Inhibition of human recombinant p38delta at 500 nM related to control ULK1
# T4 sequence (whole entry): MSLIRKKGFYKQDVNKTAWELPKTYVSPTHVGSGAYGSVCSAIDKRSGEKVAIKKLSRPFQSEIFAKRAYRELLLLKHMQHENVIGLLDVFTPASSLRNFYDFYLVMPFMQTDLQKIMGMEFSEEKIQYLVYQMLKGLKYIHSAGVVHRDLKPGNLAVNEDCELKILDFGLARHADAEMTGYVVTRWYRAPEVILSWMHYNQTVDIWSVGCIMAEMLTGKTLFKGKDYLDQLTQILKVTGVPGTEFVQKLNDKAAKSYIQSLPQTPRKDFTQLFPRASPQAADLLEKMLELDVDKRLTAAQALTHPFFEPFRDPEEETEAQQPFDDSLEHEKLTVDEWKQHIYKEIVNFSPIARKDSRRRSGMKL
# [14] = target: Serine/threonine-protein kinase 32A (Homo sapiens) (UniProt Q8WU08); assay: Inhibition of human recombinant YANK1 at 500 nM in presence of ATP by radiometric assay relative to control
# [15] = target: Serine/threonine-protein kinase 33 (Homo sapiens) (UniProt Q9BYT3); assay: Inhibition of human recombinant STK33 at 500 nM in presence of ATP by radiometric assay relative to control
# [16] = target: Mitogen-activated protein kinase 1 (Homo sapiens) (UniProt P28482); assay: Inhibition of human recombinant Erk2 at 500 nM related to control ULK1
compound,measurement,setting,value
O=C(N[C@@H](C1CC1)C(F)(F)F)c1cc(-c2cnn3cc(-c4ccc(F)cc4)cnc23)cs1,fold change (FC),[1],0
same,inhibition,[2],0%
CC(C)[C@H](NC(=O)c1cc(-c2cnn3cc(-c4ccc(OCCN5CCCCC5)cc4)cnc23)cs1)C(F)(F)F,inhibition,[3],5%
same,inhibition,[4],69%
same,fold change (FC),[5],0
same,fold change (FC),[6],0.05
same,fold change (FC),[7],0.03
same,fold change (FC),[8],0
CNC(=O)c1ccccc1Oc1nc(Nc2cc(OC)c(OC)c(OC)c2)ncc1Br,inhibition,[9],3%
same,fold change (FC),[10],0.03
same,inhibition,[11],0%
same,fold change (FC),[12],0.22
same,fold change (FC),[13],0.26
same,inhibition,[14],0%
same,inhibition,[15],4%
same,fold change (FC),[16],0
